Measured values: US9730914B2, “3,5-diaminopyrazole kinase inhibitors” (Axikin Pharmaceuticals, Inc., priority 2014, dated 2017)

Tests used:
[1] = target: T1, kinase domain protein of RC kinase (RCK) (Homo sapiens, UniProt Q56UN5); experiment: Kinase competition binding assay (Kd, qPCR readout), RC kinase; conditions: Kd class, read-out: RCK Activity Level
T1 construct: made in house; host or cells: E. coli BL21-derived host (T7 phage) or HEK-293
T1 sequence (Q56UN5 1061-1324 limits assumed): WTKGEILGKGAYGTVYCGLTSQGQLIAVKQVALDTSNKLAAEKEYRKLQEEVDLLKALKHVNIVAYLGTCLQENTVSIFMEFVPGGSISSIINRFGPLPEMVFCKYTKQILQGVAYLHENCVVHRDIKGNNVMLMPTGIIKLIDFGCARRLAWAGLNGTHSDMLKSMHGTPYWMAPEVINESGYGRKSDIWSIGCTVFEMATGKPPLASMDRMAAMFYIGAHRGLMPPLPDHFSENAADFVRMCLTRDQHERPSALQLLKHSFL
Experimental: (§1) For most assays, kinase-tagged T7 phage strains were prepared in an E. coli host derived from the BL21 strain. E. coli were grown to log-phase and infected with T7 phage and incubated with shaking at 32° C. until lysis. The lysates were centrifuged and filtered to remove cell debris. The remaining kinases were produced in HEK-293 cells and subsequently tagged with DNA for quantitative PCR (qPCR) detection.
(§2) Streptavidin-coated magnetic beads were treated with biotinylated small molecule ligands for 30 minutes at room temperature to generate affinity resins for kinase assays. The liganded beads were blocked with excess biotin and washed with blocking buffer (SeaBlock (Pierce), 1% BSA, 0.05% Tween 20, 1 mM DTT) to remove unbound ligand and to reduce nonspecific binding. Binding reactions were assembled by combining kinases, liganded affinity beads, and test compounds in 1× binding buffer (20% SeaBlock, 0.17×PBS, 0.05% Tween 20, 6 mM DTT). All reactions were performed in polystyrene 96-well plates in a final volume of 0.135 mL. The assay plates were incubated at room temperature with shaking for 1 hour and the affinity beads were washed with wash buffer (1×PBS, 0.05% Tween 20). The beads were then re-suspended in elution buffer (1×PBS, 0.05% Tween 20, 0.5 μM non-biotinylated affinity ligand) and incubated at room temperature with shaking for 30 minutes. The kinase concentration in the eluates was measured by qPCR.
(§3) An 11-point 3-fold serial dilution of each test compound was prepared in 100% DMSO at 100× final test concentration and subsequently diluted to 1× in the assay (final DMSO concentration=1%). Most Kd values were determined using a compound top concentration=30,000 nM. If the initial Kd determined was <0.5 nM, (the lowest concentration tested), the measurement was repeated with a serial dilution starting at a lower top concentration. A more detailed description of this assay may be found in Fabian, M. A. et al. Nat. Biotechnol. 2005, 23, 329-336, which is incorporated herein in its entirety.
(§4) The biological results of inhibition of the kinase domain protein of RC kinase (RCK) and JAK2 and JAK3 are summarized in Tables 2 and 3, wherein A represents a Kd of <50 nM; B represents 50 nM<Kd<100 nM; C represents 100 nM<Kd<1000 nM; and D represents a Kd>1000 nM.

[2] = target: T2, JAK2 (Homo sapiens, UniProt O60674); experiment: Kinase competition binding assay (Kd, qPCR readout), JAK2; conditions: for Kd: Kd class, JAK2, read-out: JAK2 Activity Level; for RCK:JAK2 selectivity ratio: ratio Kd (JAK2): Kd(RCK)
T2 construct: made in house; host or cells: E. coli BL21-derived host (T7 phage) or HEK-293
Experimental: as §1, §2, §3, §4
Additionally, RCK:JAK2 selectivity, as measured by the ratio Kd (JAK2): Kd(RCK) is represented as follows: A represents Kd (JAK2): Kd (RCK)>100; B represents 10<Kd(JAK2): Kd (RCK)<100; C represents 1<Kd (JAK2): Kd (RCK)<10; and D represents Kd(JAK2): Kd (RCK)<1.

[3] = target: T3, JAK3 (Homo sapiens, UniProt P52333); experiment: Kinase competition binding assay (Kd, qPCR readout), JAK3; conditions: for Kd: Kd class, JAK3, read-out: JAK3 Activity Level; for RCK:JAK3 selectivity ratio: ratio Kd (JAK3): Kd (RCK)
T3 construct: made in house; host or cells: E. coli BL21-derived host (T7 phage) or HEK-293
Experimental: as §1, §2, §3, §4
Similarly, RCK:JAK3 selectivity, as measured by the ratio Kd (JAK3): Kd (RCK) is represented as follows: A represents Kd (JAK3): Kd (RCK)>100; B represents 10<Kd (JAK3): Kd (RCK)<100; C represents 1<Kd (JAK3): Kd (RCK)<10; and D represents Kd (JAK3): Kd(RCK)<1.

T3 sequence (P52333 811-1124 limits assumed): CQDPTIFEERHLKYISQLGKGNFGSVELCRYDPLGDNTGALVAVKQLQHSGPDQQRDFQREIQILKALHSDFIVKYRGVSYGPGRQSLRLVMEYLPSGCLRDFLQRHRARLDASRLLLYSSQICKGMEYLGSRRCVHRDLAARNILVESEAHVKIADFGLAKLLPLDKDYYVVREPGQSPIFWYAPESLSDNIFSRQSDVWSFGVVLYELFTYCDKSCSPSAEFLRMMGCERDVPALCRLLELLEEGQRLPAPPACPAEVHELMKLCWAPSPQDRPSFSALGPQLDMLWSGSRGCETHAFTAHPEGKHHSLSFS
T2 sequence (O60674 840-1132 limits assumed): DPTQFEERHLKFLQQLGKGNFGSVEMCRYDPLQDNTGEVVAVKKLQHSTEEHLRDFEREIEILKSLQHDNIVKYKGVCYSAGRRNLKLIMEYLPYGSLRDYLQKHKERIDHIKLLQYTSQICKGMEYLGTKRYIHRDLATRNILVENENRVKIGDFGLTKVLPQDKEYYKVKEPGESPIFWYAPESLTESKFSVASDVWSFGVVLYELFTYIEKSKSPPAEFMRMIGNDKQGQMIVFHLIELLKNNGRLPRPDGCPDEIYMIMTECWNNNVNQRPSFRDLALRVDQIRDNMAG

Row | Kd [1] [nM] | Kd [2] [nM] | Kd [3] [nM] | SMILES | RCK:JAK2 selectivity ratio [2] | RCK:JAK3 selectivity ratio [3]
1 | 50 to 100 | 100 to 1000 | 100 to 1000 | CC(C)C1CCN(c2ccc(Nc3n[nH]c(NCc4ccc(O)cc4)c3C(N)=O)cc2)CC1 [reference compound] | C (C represents 1<Kd (JAK2): Kd (RCK)<10) | C (C represents 1<Kd (JAK3): Kd (RCK)<10)
2 | < 50 | < 50 | < 50 | C[C@@H]1CN(c2ccc(Nc3n[nH]c(NCc4ccc(O)cc4)c3C(N)=O)cc2Cl)C[C@H](C)O1 [reference compound] | D (D represents Kd(JAK2): Kd (RCK)<1) | C (C represents 1<Kd (JAK3): Kd (RCK)<10)
3 | < 50 | < 50 | 50 to 100 | Cc1cc(Nc2n[nH]c(NCc3ccc(O)cc3)c2C(N)=O)ccc1N1CCCCC1 [reference compound] | C (C represents 1<Kd (JAK2): Kd (RCK)<10) | C (C represents 1<Kd (JAK3): Kd (RCK)<10)
4 | < 50 | < 50 | < 50 | NC(=O)c1c(Nc2ccc(N3CCOCC3)nc2)n[nH]c1NCc1ccc(O)cc1 [reference compound] | D (D represents Kd(JAK2): Kd (RCK)<1) | C (C represents 1<Kd (JAK3): Kd (RCK)<10)
5 | < 50 | < 50 | < 50 | N#CCc1ccc(Nc2n[nH]c(NCc3ccc(O)cc3)c2C(N)=O)cc1 [reference compound] | D (D represents Kd(JAK2): Kd (RCK)<1) | C (C represents 1<Kd (JAK3): Kd (RCK)<10)
6 | < 50 | < 50 | < 50 | CC(C)N1CCN(c2ccc(Nc3n[nH]c(NCc4ccc(O)cc4)c3C(N)=O)cc2Cl)CC1 [reference compound] | C (C represents 1<Kd (JAK2): Kd (RCK)<10) | C (C represents 1<Kd (JAK3): Kd (RCK)<10)
7 | < 50 | < 50 | < 50 | NC(=O)c1c(Nc2ccc(-c3ccccn3)cc2)n[nH]c1NCc1ccc(O)cc1 [reference compound] | D (D represents Kd(JAK2): Kd (RCK)<1) | C (C represents 1<Kd (JAK3): Kd (RCK)<10)
8 | < 50 | < 50 | < 50 | NC(=O)c1c(Nc2ccc(F)cc2)n[nH]c1NCc1ccc(O)cc1 [reference compound] | D (D represents Kd(JAK2): Kd (RCK)<1) | D (D represents Kd (JAK3): Kd(RCK)<1)
9 | < 50 | < 50 | 50 to 100 | NC(=O)c1c(Nc2cnc(N3CCOCC3)c(Cl)c2)n[nH]c1NCc1ccc(O)cc1 [reference compound] | C (C represents 1<Kd (JAK2): Kd (RCK)<10) | C (C represents 1<Kd (JAK3): Kd (RCK)<10)
10 | < 50 | < 50 | < 50 | NC(=O)c1c(Nc2ccc(S(N)(=O)=O)cc2)n[nH]c1NCc1ccc(O)cc1 [reference compound] | D (D represents Kd(JAK2): Kd (RCK)<1) | D (D represents Kd (JAK3): Kd(RCK)<1)
11 | 50 to 100 | < 50 | < 50 | N#Cc1cccc(Nc2n[nH]c(NCc3ccc(O)cc3)c2C(N)=O)c1 [reference compound] | D (D represents Kd(JAK2): Kd (RCK)<1) | D (D represents Kd (JAK3): Kd(RCK)<1)

Further lines, the compound ahead of its results:

Row | SMILES | Kd [1] [nM] | Kd [2] [nM] | Kd [3] [nM] | RCK:JAK2 selectivity ratio [2] | RCK:JAK3 selectivity ratio [3]
12 | Cc1cc(CNc2[nH]nc(Nc3ccc(CC#N)cc3)c2C(N)=O)cc(C)c1O [Compound 61, 3-((4-(cyanomethyl)phenyl)amino)-5-((4-hydroxy-3,5-dimethylbenzyl)amino)-1H-pyrazole-4-carboxamide] | > 1000 | > 1000 | > 1000 | C (C represents 1<Kd (JAK2): Kd (RCK)<10) | C (C represents 1<Kd (JAK3): Kd (RCK)<10)
13 | Cc1cc(Nc2n[nH]c(NCc3cc(C)c(O)c(C)c3)c2C(N)=O)cnc1N1CCN(C)CC1 [Compound 14, 5-((4-hydroxy-3,5-dimethylbenzyl)amino)-3-((5-methyl-6-(4-methylpiperazin-1-yl)pyridin-3-yl)amino)-1H-pyrazole-4-carboxamide] | > 1000 | > 1000 | > 1000 | C (C represents 1<Kd (JAK2): Kd (RCK)<10) | B (B represents 10<Kd (JAK3): Kd (RCK)<100)
14 | Cc1cc(Nc2n[nH]c(NCc3cc(C)c(O)c(C)c3)c2C(N)=O)ccc1N1CCCCC1 [Compound 30, 5-((4-hydroxy-3,5-dimethylbenzyl)amino)-3-((3-methyl-4-(piperidin-1-yl)phenyl)amino)-1H-pyrazole-4-carboxamide] | 50 to 100 | > 1000 | > 1000 | B (B represents 10<Kd(JAK2): Kd (RCK)<100) | B (B represents 10<Kd (JAK3): Kd (RCK)<100)
15 | Cc1cc(CNc2[nH]nc(Nc3ccc(NC(=O)c4ccc(C(F)(F)F)cc4)cc3)c2C(N)=O)cc(C)c1O [Compound 62, 5-((4-hydroxy-3,5-dimethylbenzyl)amino)-3-((4-(4-(trifluoromethyl)benzamido)phenyl)amino)-1H-pyrazole-4-carboxamide] | 100 to 1000 | > 1000 | > 1000 | B (B represents 10<Kd(JAK2): Kd (RCK)<100) | B (B represents 10<Kd (JAK3): Kd (RCK)<100)
16 | Cc1cc(CNc2[nH]nc(Nc3ccc(N4CCC(N5CCC(C)CC5)CC4)cc3)c2C(N)=O)cc(C)c1O [Compound 23, 5-((4-hydroxy-3,5-dimethylbenzyl)amino)-3-((4-(4-methyl-[1,4′-bipiperidin]-1′-yl)phenyl)amino)-1H-pyrazole-4-carboxamide] | < 50 | > 1000 | > 1000 | B (B represents 10<Kd(JAK2): Kd (RCK)<100) | B (B represents 10<Kd (JAK3): Kd (RCK)<100)
17 | Cc1cc(CNc2[nH]nc(Nc3ccc(N4CCOCC4=O)cc3)c2C(N)=O)cc(C)c1O [Compound 59, 5-((4-hydroxy-3,5-dimethylbenzyl)amino)-3-((4-(3-oxomorpholino)phenyl)amino)-1H-pyrazole-4-carboxamide] | 100 to 1000 | > 1000 | > 1000 | B (B represents 10<Kd(JAK2): Kd (RCK)<100) | B (B represents 10<Kd (JAK3): Kd (RCK)<100)
18 | Cc1cc(CNc2[nH]nc(Nc3ccc(N4C[C@@H](C)O[C@@H](C)C4)c(Cl)c3)c2C(N)=O)cc(C)c1O [Compound 15, 3-((3-chloro-4-(2,6-dimethylmorpholino)phenyl)amino)-5-((4-hydroxy-3,5-dimethylbenzyl)amino)-1H-pyrazole-4-carboxamide] | 50 to 100 | > 1000 | > 1000 | B (B represents 10<Kd(JAK2): Kd (RCK)<100) | B (B represents 10<Kd (JAK3): Kd (RCK)<100)
19 | Cc1cc(CNc2[nH]nc(Nc3ccc(N4CCC(N(C)C)CC4)cc3)c2C(N)=O)cc(C)c1O [Compound 36, 3-((4-(4-(dimethylamino)piperidin-1-yl)phenyl)amino)-5-((4-hydroxy-3,5-dimethylbenzyl)amino)-1H-pyrazole-4-carboxamide] | < 50 | 100 to 1000 | > 1000 | B (B represents 10<Kd(JAK2): Kd (RCK)<100) | A (A represents Kd (JAK3): Kd (RCK)>100)
